Source: PubChem BioAssay AID256 (DTP/NCI, 2004)
Toxic doses and inconclusive results are not listed. Rule for the calls: active = survival T/C of 150% or more; inactive = T/C below 125% in these data.

System: CD2F1 mice, L1210 leukemia ip, survival T/C
Assay: NCI In Vivo Anticancer Drug Screen. Data for tumor model L1210 Leukemia (intraperitoneal) in CD2F1 (CDF1) mice
Conditions: higher = longer survival
How it was run: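 Implant tumor; dose compound or vehicle; measure endpoint in both groups; report treated divided by control.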

[1] = endpoint: mean survival time, dose: 100.0 mg/kg/injection, schedule: Q01DX009 (ip), vehicle: saline with Tween-80
[2] = endpoint: mean survival time, dose: 100.0 mg/kg/injection, schedule: Q04DX003 (ip), vehicle: saline with Tween-80
[3] = endpoint: mean survival time, dose: 200.0 mg/kg/injection, schedule: Q01DX009 (ip), vehicle: saline with Tween-80
[4] = endpoint: mean survival time, dose: 200.0 mg/kg/injection, schedule: Q04DX003 (ip), vehicle: saline with Tween-80

Measured: T/C

CC(C)[C@]12O[C@H]1[C@@H]1O[C@]13[C@]1(O[C@H]1C[C@H]1C4=C(C(=O)OC4)[C@@H](O)C[C@@]13C)[C@@H]2O
inactive: endpoint: mean survival time, dose: 0.8 micrograms/kg/injection, schedule: Q01DX009 (ip), vehicle: saline + alcohol 94 % of control | endpoint: mean survival time, dose: 1.6 micrograms/kg/injection, schedule: Q01DX009 (ip), vehicle: saline + alcohol 92 % of control | endpoint: mean survival time, dose: 3.1 micrograms/kg/injection, schedule: Q01DX009 (ip), vehicle: saline + alcohol 96 % of control | endpoint: mean survival time, dose: 6.3 micrograms/kg/injection, schedule: Q01DX009 (ip), vehicle: saline + alcohol 92 % of control | endpoint: mean survival time, dose: 12.5 micrograms/kg/injection, schedule: Q01DX009 (ip), vehicle: saline + alcohol 89 % of control | endpoint: mean survival time, dose: 25.0 micrograms/kg/injection, schedule: Q01DX009 (ip), vehicle: saline + alcohol 93 % of control | endpoint: mean survival time, dose: 32.0 micrograms/kg/injection, schedule: Q01DX009 (ip), vehicle: saline + alcohol 106 % of control | endpoint: mean survival time, dose: 50.0 micrograms/kg/injection, schedule: Q01DX009 (ip), vehicle: saline + alcohol 107 % of control | endpoint: mean survival time, dose: 63.0 micrograms/kg/injection, schedule: Q01DX009 (ip), vehicle: saline + alcohol 121 % of control | endpoint: mean survival time, dose: 100.0 micrograms/kg/injection, schedule: Q01DX009 (ip), vehicle: saline + alcohol 115 % of control | endpoint: mean survival time, dose: 500.0 micrograms/kg/injection, schedule: Q01DX009 (ip), vehicle: saline + alcohol 93 % of control | endpoint: median survival time, dose: 8.0 micrograms/kg/injection, schedule: Q03HX024 (ip), vehicle: saline + alcohol 111 % of control | endpoint: median survival time, dose: 8.0 micrograms/kg/injection, schedule: Q03HX024 (ip), vehicle: saline 110 % of control | endpoint: median survival time, dose: 16.0 micrograms/kg/injection, schedule: Q03HX016 (ip), vehicle: saline + alcohol 117 % of control | endpoint: median survival time, dose: 30.0 micrograms/kg/injection, schedule: Q01DX009 (ip), vehicle: saline 109 % of control | endpoint: median survival time, dose: 30.0 micrograms/kg/injection, schedule: Q01DX009 (sc), vehicle: saline 103 % of control | endpoint: median survival time, dose: 31.2 micrograms/kg/injection, schedule: Q01DX009 (ip), vehicle: saline + alcohol 101 % of control | endpoint: median survival time, dose: 31.2 micrograms/kg/injection, schedule: Q01DX009 (sc), vehicle: saline + alcohol 98 % of control | endpoint: median survival time, dose: 60.0 micrograms/kg/injection, schedule: Q01DX009 (sc), vehicle: saline 102 % of control | endpoint: median survival time, dose: 62.0 micrograms/kg/injection, schedule: Q03HX008 (ip), vehicle: saline + alcohol 123 % of control | endpoint: median survival time, dose: 62.5 micrograms/kg/injection, schedule: Q01DX009 (ip), vehicle: saline + alcohol 122 % of control | endpoint: median survival time, dose: 62.5 micrograms/kg/injection, schedule: Q01DX009 (sc), vehicle: saline + alcohol 104 % of control | endpoint: median survival time, dose: 62.5 micrograms/kg/injection, schedule: Q03HX016 (ip), vehicle: saline + alcohol 118 % of control | endpoint: median survival time, dose: 62.5 micrograms/kg/injection, schedule: Q04DX003 (ip), vehicle: saline + alcohol 97 % of control | endpoint: median survival time, dose: 125.0 micrograms/kg/injection, schedule: Q01DX009 (sc), vehicle: saline + alcohol 104 % of control | endpoint: median survival time, dose: 125.0 micrograms/kg/injection, schedule: Q03HX008 (ip), vehicle: saline + alcohol 118 % of control | endpoint: median survival time, dose: 125.0 micrograms/kg/injection, schedule: Q03HX016 (ip), vehicle: saline + alcohol 111 % of control | endpoint: median survival time, dose: 125.0 micrograms/kg/injection, schedule: Q03HX024 (ip), vehicle: saline + alcohol 120 % of control | endpoint: median survival time, dose: 125.0 micrograms/kg/injection, schedule: Q04DX003 (ip), vehicle: saline + alcohol 101 % of control | endpoint: median survival time, dose: 125.0 micrograms/kg/injection, schedule: Q08DX002 (ip), vehicle: saline + alcohol 98 % of control | endpoint: median survival time, dose: 130.0 micrograms/kg/injection, schedule: Q01DX009 (sc), vehicle: saline 109 % of control | endpoint: median survival time, dose: 250.0 micrograms/kg/injection, schedule: Q01DX001 (ip), vehicle: saline + alcohol 113 % of control | endpoint: median survival time, dose: 250.0 micrograms/kg/injection, schedule: Q01DX001 (sc), vehicle: saline + alcohol 104 % of control | endpoint: median survival time, dose: 250.0 micrograms/kg/injection, schedule: Q04DX003 (ip), vehicle: saline + alcohol 113 % of control | endpoint: median survival time, dose: 250.0 micrograms/kg/injection, schedule: Q08DX002 (ip), vehicle: saline + alcohol 109 % of control | endpoint: median survival time, dose: 500.0 micrograms/kg/injection, schedule: Q01DX001 (ip), vehicle: saline + alcohol 109 % of control | endpoint: median survival time, dose: 500.0 micrograms/kg/injection, schedule: Q01DX001 (sc), vehicle: saline + alcohol 107 % of control | endpoint: median survival time, dose: 500.0 micrograms/kg/injection, schedule: Q01DX009 (sc), vehicle: saline 87 % of control | endpoint: median survival time, dose: 500.0 micrograms/kg/injection, schedule: Q04DX003 (ip), vehicle: saline + alcohol 122 % of control | endpoint: median survival time, dose: 500.0 micrograms/kg/injection, schedule: Q08DX002 (ip), vehicle: saline + alcohol 108 % of control | endpoint: median survival time, dose: 1000.0 micrograms/kg/injection, schedule: Q01DX001 (ip), vehicle: saline + alcohol 109 % of control | endpoint: median survival time, dose: 1000.0 micrograms/kg/injection, schedule: Q04DX003 (ip), vehicle: saline + alcohol 115 % of control | endpoint: median survival time, dose: 1000.0 micrograms/kg/injection, schedule: Q08DX002 (ip), vehicle: saline + alcohol 97 % of control
active: endpoint: mean survival time, dose: 200.0 micrograms/kg/injection, schedule: Q01DX009 (ip), vehicle: saline + alcohol 156 % of control | endpoint: mean survival time, dose: 250.0 micrograms/kg/injection, schedule: Q01DX009 (ip), vehicle: saline + alcohol 188 % of control | endpoint: mean survival time, dose: 400.0 micrograms/kg/injection, schedule: Q01DX009 (ip), vehicle: saline + alcohol 207 % of control | endpoint: median survival time, dose: 31.2 micrograms/kg/injection, schedule: Q03HX024 (ip), vehicle: saline + alcohol 151 % of control | endpoint: median survival time, dose: 60.0 micrograms/kg/injection, schedule: Q03HX024 (ip), vehicle: saline 191 % of control | endpoint: median survival time, dose: 62.5 micrograms/kg/injection, schedule: Q03HX024 (ip), vehicle: saline + alcohol 166 % of control | endpoint: median survival time, dose: 130.0 micrograms/kg/injection, schedule: Q01DX009 (ip), vehicle: saline 151 % of control | endpoint: median survival time, dose: 250.0 micrograms/kg/injection, schedule: Q01DX009 (ip), vehicle: saline + alcohol 184 % of control | endpoint: median survival time, dose: 250.0 micrograms/kg/injection, schedule: Q01DX009 (ip), vehicle: saline 203 % of control | endpoint: median survival time, dose: 250.0 micrograms/kg/injection, schedule: Q01DX009 (sc), vehicle: saline 152 % of control | endpoint: median survival time, dose: 500.0 micrograms/kg/injection, schedule: Q01DX009 (ip), vehicle: saline + alcohol 239 % of control | endpoint: median survival time, dose: 500.0 micrograms/kg/injection, schedule: Q01DX009 (ip), vehicle: saline 255 % of control | endpoint: median survival time, dose: 500.0 micrograms/kg/injection, schedule: Q01DX009 (sc), vehicle: saline + alcohol 193 % of control

O=C(O)CC(NC(=O)OCc1ccccc1)C(=O)OCc1ccccc1 (stereo unspecified)
inactive: [1] 93 % of control | [2] 104 % of control | [3] 96 % of control | [4] 100 % of control | endpoint: mean survival time, dose: 400.0 mg/kg/injection, schedule: Q04DX003 (ip), vehicle: saline with Tween-80 87 % of control

Nc1nc2nc(-c3ccccc3)c(-c3ccccc3)nc2c(=O)[nH]1
inactive: [1] 96 % of control | [3] 94 % of control | endpoint: mean survival time, dose: 400.0 mg/kg/injection, schedule: Q01DX009 (ip), vehicle: saline with Tween-80 97 % of control

O=[N+]([O-])c1ccc(N=Nc2ccc(N3CC3)c([N+](=O)[O-])c2)cc1
inactive: endpoint: mean survival time, dose: 65.0 mg/kg/injection, schedule: Q01DX001 (ip), vehicle: Klucel (hydroxypropylcellulose) (HPC) 96 % of control | endpoint: mean survival time, dose: 130.0 mg/kg/injection, schedule: Q01DX001 (ip), vehicle: Klucel (hydroxypropylcellulose) (HPC) 88 % of control | endpoint: mean survival time, dose: 260.0 mg/kg/injection, schedule: Q01DX001 (ip), vehicle: Klucel (hydroxypropylcellulose) (HPC) 89 % of control

Cc1cc(C(O)c2ccccn2)c2cc(Cl)cc(Cl)c2n1 (stereo unspecified)
inactive: endpoint: mean survival time, dose: 100.0 mg/kg/injection, schedule: Q04DX002 (ip), vehicle: saline with Tween-80 97 % of control | endpoint: mean survival time, dose: 200.0 mg/kg/injection, schedule: Q04DX002 (ip), vehicle: saline with Tween-80 102 % of control | endpoint: mean survival time, dose: 400.0 mg/kg/injection, schedule: Q04DX002 (ip), vehicle: saline with Tween-80 97 % of control

CN(Cc1cnc2nc(N)nc(N)c2n1)c1ccc(C(=O)NC(CCP(=O)(O)O)P(=O)(O)O)cc1 (stereo unspecified)
inactive: endpoint: median survival time, dose: 0.38 mg/kg/injection, schedule: Q01DX009 (ip), vehicle: saline 101 % of control | endpoint: median survival time, dose: 0.75 mg/kg/injection, schedule: Q01DX009 (ip), vehicle: saline 101 % of control | endpoint: median survival time, dose: 1.5 mg/kg/injection, schedule: Q01DX009 (ip), vehicle: saline 98 % of control | endpoint: median survival time, dose: 3.0 mg/kg/injection, schedule: Q01DX009 (ip), vehicle: saline 102 % of control | endpoint: median survival time, dose: 6.0 mg/kg/injection, schedule: Q01DX009 (ip), vehicle: saline 102 % of control | endpoint: median survival time, dose: 12.0 mg/kg/injection, schedule: Q01DX009 (ip), vehicle: saline 101 % of control

CCCCN(CCCC)c1cc(C(C)=O)c2ccccc2n1
inactive: endpoint: mean survival time, dose: 50.0 mg/kg/injection, schedule: Q04DX003 (ip), vehicle: saline 102 % of control | endpoint: mean survival time, dose: 100.0 mg/kg/injection, schedule: Q04DX003 (ip), vehicle: saline 102 % of control | endpoint: mean survival time, dose: 200.0 mg/kg/injection, schedule: Q04DX003 (ip), vehicle: saline 102 % of control

O=C(/C(=N\O)c1ccc(Cl)cc1)c1ccc(Cl)cc1
inactive: [2] 95 % of control | [4] 87 % of control
